Assay results: ChEMBL document CHEMBL1138860, “Design, synthesis, and evaluation of a potent, cell-permeable, conformationally constrained second mitochondria derived activator of caspase (Smac) mimetic” (J Med Chem, 2006)

Experiments:
MDA-MB-231 [1] = assay: Inhibition of MDA-MB-231 cell growth by WST assay; assay type: functional, cell-based; conditions: Homo sapiens
MDA-MB-231 [2] = assay: Induction of cell death in MDA-MB-231 by Trypan blue exclusion assay at 100 nM after 4 days; assay type: functional, Homo sapiens
MDA-MB-231 [3] = assay: Induction of cell death in MDA-MB-231 by Trypan blue exclusion assay at 1 uM 4 days; assay type: functional, Homo sapiens

## CC[C@H](N)C(=O)N[C@H]1CCC[C@H]2CC[C@@H](C(=O)NC(c3ccccc3)c3ccccc3)N2C1=O
MDA-MB-231 [1]
  IC50: 50 µM

## CC[C@@H](C(=O)N[C@H]1CCC[C@H]2CC[C@@H](C(=O)NC(c3ccccc3)c3ccccc3)N2C1=O)N(C)C
MDA-MB-231 [1]
  IC50: 3 µM

## CC[C@H](NC)C(=O)N[C@H]1CCC[C@H]2CC[C@@H](C(=O)NC(c3ccccc3)c3ccccc3)N2C1=O
MDA-MB-231 [2]
  Activity: 40%
MDA-MB-231 [3]
  Activity: 80%
MDA-MB-231 [1]
  IC50: 0.1 µM

## C[C@H](O)C(=O)N[C@H]1CCC[C@H]2CC[C@@H](C(=O)NC(c3ccccc3)c3ccccc3)N2C1=O
MDA-MB-231 [1]
  IC50: 65 µM
